Where two headings read alike, the source gives them in different places.
Test system: Male Sprague-Dawley rats
Settings: six-hour delay

Nc1c2c(nc3ccccc13)CCCC2 [Tacrine, tacrine]
retention (errors in retention session) (tacrine 3 mg/kg s.c. immediately after the sampling phase): not
retention (errors in retention session) (tacrine 10 mg/kg s.c. immediately after the sampling phase): significantly improved retention

Source: patent publication US7378447B2, “Muscarinic agonists” (Eli Lilly and Company, priority 2003, dated 2008)
